The results in this text go back to patent US20130079383A1, “Lipid Compounds Targeting VLA-4” (ARROWHEAD RESEARCH CORPORATION, priority 2011, published 2013).

pIC50: −log10 of the molar value. Counter-ions that a name gives are not always drawn.

One test deals with T1, VLA-4 (Homo sapiens, UniProt P05556+P13612).
T1 construct: Jurkat cells express high levels of VLA-4 on their membrane surface; host or cells: Jurkat Clone E6-1
T1 sequence (P13612 34-1032): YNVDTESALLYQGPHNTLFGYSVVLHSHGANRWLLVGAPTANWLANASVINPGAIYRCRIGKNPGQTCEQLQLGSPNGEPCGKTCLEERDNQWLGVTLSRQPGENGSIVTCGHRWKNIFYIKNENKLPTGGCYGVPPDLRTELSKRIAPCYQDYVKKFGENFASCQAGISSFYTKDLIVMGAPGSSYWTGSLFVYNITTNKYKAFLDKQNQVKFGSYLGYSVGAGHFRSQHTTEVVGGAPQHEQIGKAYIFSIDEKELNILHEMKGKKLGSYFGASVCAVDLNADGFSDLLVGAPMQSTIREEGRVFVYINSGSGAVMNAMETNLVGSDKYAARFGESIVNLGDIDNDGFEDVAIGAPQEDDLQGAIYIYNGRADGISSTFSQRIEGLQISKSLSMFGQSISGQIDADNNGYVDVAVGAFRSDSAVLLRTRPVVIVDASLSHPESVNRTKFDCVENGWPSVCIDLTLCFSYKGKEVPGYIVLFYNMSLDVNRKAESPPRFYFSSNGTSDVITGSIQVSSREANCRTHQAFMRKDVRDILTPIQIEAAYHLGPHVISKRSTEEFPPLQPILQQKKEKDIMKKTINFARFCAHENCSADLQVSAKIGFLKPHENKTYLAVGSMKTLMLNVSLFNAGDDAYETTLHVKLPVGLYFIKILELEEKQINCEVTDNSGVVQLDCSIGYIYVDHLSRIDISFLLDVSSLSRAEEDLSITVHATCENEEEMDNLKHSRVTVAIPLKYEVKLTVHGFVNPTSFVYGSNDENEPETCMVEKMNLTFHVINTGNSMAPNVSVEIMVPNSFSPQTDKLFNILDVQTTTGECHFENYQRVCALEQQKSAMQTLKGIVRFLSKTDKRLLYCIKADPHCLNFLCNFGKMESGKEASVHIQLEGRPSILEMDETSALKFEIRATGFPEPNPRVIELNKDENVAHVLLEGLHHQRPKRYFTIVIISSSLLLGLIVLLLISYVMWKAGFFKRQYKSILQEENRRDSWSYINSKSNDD
T1 sequence (P05556 21-798): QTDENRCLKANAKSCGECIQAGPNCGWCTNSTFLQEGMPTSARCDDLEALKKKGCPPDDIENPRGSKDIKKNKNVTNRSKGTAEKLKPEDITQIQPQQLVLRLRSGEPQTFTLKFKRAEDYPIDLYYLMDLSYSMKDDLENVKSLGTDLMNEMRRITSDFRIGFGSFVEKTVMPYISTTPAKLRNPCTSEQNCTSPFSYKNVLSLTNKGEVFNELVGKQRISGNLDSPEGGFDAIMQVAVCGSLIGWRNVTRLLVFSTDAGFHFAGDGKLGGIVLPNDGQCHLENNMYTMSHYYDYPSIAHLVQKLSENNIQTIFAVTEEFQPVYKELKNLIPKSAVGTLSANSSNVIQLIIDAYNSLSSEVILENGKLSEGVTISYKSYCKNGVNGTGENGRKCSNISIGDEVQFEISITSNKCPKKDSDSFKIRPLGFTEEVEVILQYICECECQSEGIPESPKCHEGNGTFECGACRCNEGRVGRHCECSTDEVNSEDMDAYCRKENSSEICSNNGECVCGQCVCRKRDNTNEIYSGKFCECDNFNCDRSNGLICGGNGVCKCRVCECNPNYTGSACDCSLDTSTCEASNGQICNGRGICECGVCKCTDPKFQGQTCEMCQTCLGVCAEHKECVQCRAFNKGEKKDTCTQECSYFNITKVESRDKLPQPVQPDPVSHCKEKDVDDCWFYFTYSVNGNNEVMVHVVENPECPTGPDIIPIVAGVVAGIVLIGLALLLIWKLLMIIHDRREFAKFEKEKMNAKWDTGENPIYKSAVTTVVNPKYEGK
As to the kind of experiment: VLA-4/VCAM binding (adhesion) assay in Jurkat cells. The format is cell-based. The settings on record: Jurkat cells activated with 0.5 mM Mn2+, VCAM-1-coated plates, 45 min at 37° C. Here is the method: The following adhesion assay has been reported previously and used in this invention with minor modification. See U.S. Pat. Nos. 6,229,011 and 6,380,387 both of which are incorparated herein by reference in their entirety. […] Each assay was conducted in a 96-well plate with VCAM-1 used as the counter ligand for the cells (i.e., VCAM-1 was bound to the surface of the wells). More specifically, 96-well high-binding F96 Maxisorp immuno microtiter plates (Nunc) were coated overnight with 25 ng/well of VCAM-1. On the day of the experiment, plates were blocked for 1 h with PBS buffer containing 1% nonfat dry milk to eliminate nonspecific binding. The plates were then washed with DPBS (Dulbecco's Phosphate Buffered Saline) and blotted dry. Any excess liquid was carefully aspirated from the wells. As a control, the small molecule antagonist (27) for inhibiting VLA-4 referred to above was added to control wells in buffer containing 4% DMSO and diluted down the plate, typically in a concentration range of 1000 nM to 0.2 nM. Jurkat Clone E6-1 cells (ATCC) were labeled with 100 μg/mL 6-carboxyfluorescein diacetate, a fluorescent dye, and then activated with RPMI 1640 medium containing 0.5 mM of the divalent cation Mn^2+ and 0.05% bovine serum albumin. It is noted that this activation is needed to achieve maximal binding for the ligand and may simulate the activation of integrins by cytokines and chemokines in vivo. […] To assess VLA-4 inhibition of the VLA-4 targeting lipids (from the examples), Jurkat cells (expressing high levels of VLA-4) were added to the VCAM-1-coated plates to a final concentration of 2×10^5 cells/well in 96-well plates and allowed to incubate with the test lipids (from the examples) for 45 min at 37° C. After removing unbound cells by gently washing the wells with PBS, the fluorescence signal from the bound cells was read on a Tecan Safire2 microplate reader at 450 nm. Points were plotted and the IC50s of each lipid were determined by regression analysis using the linear portion of the concentration-response curve.
Compound `CCCCCCCCCCCCCCCCCCOCC(C[N+](C)(C)CCCNC(=O)CCOCCOCCOCCOCCOCCOCCOCCOCCOCCC(=O)NCCC1(C(=O)N[C@@H](Cc2ccc(NC(=O)c3c(Cl)cccc3Cl)cc2)C(=O)O)CCCC1)OCCCCCCCCCCCCCCCCCC` (stereo partly drawn) [Example 6, [2,3-bis(octadecyloxy)propyl][3-[[3-[2-[2-[2-[2-[2-[2-[2-[2-[[3-[[2-[1-[[[(S)-1-carboxy-2-[4-(2,6-dichloro-benzoylamino)phenyl]ethyl]amino]carbonyl]cyclopentyl]ethyl]amino]-3-oxopropyl]oxy]ethoxy]ethoxy]ethoxy]ethoxy]ethoxy]ethoxy]ethoxy]ethoxy]-1-oxopropyl]amino]propyl]dimethylaminium bromide] showed a pIC50 of 6.88.
`CCCCCCCCCCCCOCC(C[N+](C)(C)CCCNC(=O)CCOCCOCCOCCOCCOCCOCCOCCOCCOCCC(=O)NCCC1(C(=O)N[C@@H](Cc2ccc(NC(=O)c3c(Cl)cccc3Cl)cc2)C(=O)O)CCCC1)OCCCCCCCCCCCC` (stereo partly drawn) [Example 1, [2,3-bis(dodecyloxy)propyl][3-[[3-[2-[2-[2-[2-[2-[2-[2-[2-[[3-[[2-[1-[[[(S)-1-carboxy-2-[4-(2,6-dichloro-benzoylamino)phenyl]ethyl]amino]carbonyl]cyclopentyl]ethyl]amino]-3-oxopropyl]oxy]ethoxy]ethoxy]ethoxy]ethoxy]ethoxy]ethoxy]ethoxy]ethoxy]-1-oxopropyl]amino]propyl]dimethylaminium trifluoroacetate] showed a pIC50 of 6.23.
Still for that read-out and setting: for `CCCCCCCCCCCCCCCCCCCCOCC(CN(C)CCCNC(=O)CCOCCOCCOCCOCCOCCOCCOCCOCCOCCC(=O)NCCC1(C(=O)N[C@@H](Cc2ccc(NC(=O)c3c(Cl)cccc3Cl)cc2)C(=O)O)CCCC1)OCCCCCCCCCCCCCCCCCCCC` (stereo partly drawn) [Example 8, (S)-Alpha-[[[1-[2-[[3-[2-[2-[2-[2-[2-[2-[2-[2-[[3-[[3-[[2,3-bis(icosanyloxy)propyl]methylamino]propyl]amino]-3-oxopropyl]oxy]ethoxy]ethoxy]ethoxy]ethoxy]ethoxy]ethoxy]ethoxy]ethoxy]-1-oxoproyl]amino]ethyl]cyclopentyl]carbonyl]amino]-4-(2,6-dichlorobenzoylamino)benzenepropanoic acid] the value was 6.00.
Same read-out and setting: for `CCCCCCCCCCCCCCCCOCC(C[N+](C)(C)CCCNC(=O)CCOCCOCCOCCOCCOCCOCCOCCOCCOCCC(=O)NCCC1(C(=O)N[C@@H](Cc2ccc(NC(=O)c3c(Cl)cccc3Cl)cc2)C(=O)O)CCCC1)OCCCCCCCCCCCCCCCC` (stereo partly drawn) [Example 3, [[2,3-bis(hexadecyloxy)propyl][3-[[3-[2-[2-[2-[2-[2-[2-[2-[2-[[3-[[2-[1-[[[(S)-1-carboxy-2-[4-(2,6-dichloro-benzoylamino)phenyl]ethyl]amino]carbonyl]cyclopentyl]ethyl]amino]-3-oxopropyl]oxy]ethoxy]ethoxy]ethoxy]ethoxy]ethoxy]ethoxy]ethoxy]ethoxy]-1-oxopropyl]amino]propyl]dimethylaminium trifluoroacetate] the value was 6.00.
The same measure, in the same setting: for `CCCCCCCCCCCCCCCCOCC(CN(C)CCCNC(=O)CCC(=O)NCCOCCOCCOCCOCCOCCOCCOCCOCCOCCOCCOCCOCCC(=O)NCCC1(C(=O)N[C@@H](Cc2ccc(NC(=O)c3c(Cl)cccc3Cl)cc2)C(=O)O)CCCC1)OCCCCCCCCCCCCCCCC` (stereo partly drawn) [Example 5, (S)-Alpha-[[[1-[2-[[3-[2-[2-[2-[2-[2-[2-[2-[2-[2-[2-[2-[2-[[4-[[3-[[2,3-bis(hexadecyloxy)propyl]methylamino]propyl]amino]-1,4-dioxobutyl]amino]ethoxy]ethoxy]ethoxy]ethoxy]ethoxy]ethoxy]ethoxy]ethoxy]ethoxy]ethoxy]ethoxy]ethoxy]-1-oxoproyl]amino]ethyl]cyclopentyl]carbonyl]amino]-4-(2,6-dichlorobenzoylamino) benzenepropanoic acid] the value was 8.22; for `CCCCCCCCCCCCCCCCCCCCOCC(C[N+](C)(C)CCCNC(=O)CCOCCOCCOCCOCCOCCOCCOCCOCCOCCC(=O)NCCC1(C(=O)N[C@@H](Cc2ccc(NC(=O)c3c(Cl)cccc3Cl)cc2)C(=O)O)CCCC1)OCCCCCCCCCCCCCCCCCCCC` (stereo partly drawn) [Example 7, [2,3-bis(icosanyloxy)propyl][3-[[3-[2-[2-[2-[2-[2-[2-[2-[2-[[3-[[2-[1-[[[(S)-1-carboxy-2-[4-(2,6-dichloro-benzoylamino)phenyl]ethyl]amino]carbonyl]cyclopentyl]ethyl]amino]-3-oxopropyl]oxy]ethoxy]ethoxy]ethoxy]ethoxy]ethoxy]ethoxy]ethoxy]ethoxy]-1-oxopropyl]amino]propyl]dimethylaminium bromide], 7.05; for `CCCCCCCCCCCCCCCCOCC(C[N+](C)(C)CCCNC(=O)CCC(=O)NCCOCCOCCOCCOCCOCCOCCOCCOCCOCCOCCOCCOCCC(=O)NCCC1(C(=O)NC(Cc2ccc(NC(=O)c3c(Cl)cccc3Cl)cc2)C(=O)O)CCCC1)OCCCCCCCCCCCCCCCC` [Example 4, [2,3-bis(hexadecyloxy)propyl][3-[[4-[[2-2-[2-[2-[2-[2-[2-[2-[2-[2-[2-[2-[[3-[[2-[1-[[[(S)-1-carboxy-2-[4-(2,6-dichloro-benzoylamino)phenyl]ethyl]amino]carbonyl]cyclopentyl]ethyl]amino]-3-oxopropyl]oxy]ethoxy]ethoxy]ethoxy]ethoxy]ethoxy]ethoxy]ethoxy]ethoxy]ethoxy]ethoxy]ethoxy]ethyl]amino]-1,4-dioxobutyl]amino]propyl]dimethylaminium trifluoroacetate], 6.51.
As for `CCCCCCCCCCCCOCC(C[N+](C)(C)CCCNC(=O)CCC(=O)NCCOCCOCCOCCOCCOCCOCCOCCOCCOCCOCCOCCOCCC(=O)NCCC1(C(=O)N[C@@H](Cc2ccc(NC(=O)c3c(Cl)cccc3Cl)cc2)C(=O)O)CCCC1)OCCCCCCCCCCCC` (stereo partly drawn) [Example 2, [2,3-bis(dodecyloxy)propyl][3-[[4-[[2-[2-[2-[2-[2-[2-[2-[2-[2-[2-[2-[2-[[3-[[2-[1-[[[(S)-1-carboxy-2-[4-(2,6-dichloro-benzoylamino)phenyl]ethyl]amino]carbonyl]cyclopentyl]ethyl]amino]-3-oxopropyl]oxy]ethoxy]ethoxy]ethoxy]ethoxy]ethoxy]ethoxy]ethoxy]ethoxy]ethoxy]ethoxy]ethoxy]ethyl]amino]-1-4-dioxobutyl]amino]propyl]dimethylaminium trifluoroacetate], the negative-log IC50 (pIC50) was 6.03. This pIC50 lies 0.48 log units lower than the previous one.

In the next test the test system is KIF11 mRNA. The experiment in a line: KIF11 mRNA knockdown in MV4-11 cells by LNP-formulated KIF11 siRNA (relative to 18S ribosomal RNA). It is filed as cell-based, human. The settings on record: added with no formulation as a control. Here is the method: FIG. 1. Bar graph illustrating KIF11 mRNA knockdown in MV4-11 cells (relative to 18S ribosomal RNA as a control) with various LNP formulations containing KIF11 siRNA (formulation nos. 54F, 54I, 54L, and 54O).
The human cancer cell line MV4-11 was maintained in media supplemented with 10% heat-inactivated Fetal Bovine Serum (HI-FBS; Gibco/BRL, Gaithersburg, Md.) and 2 mM L-glutamine (Gibco/BRL).
MV4-11 suspension cells in 1 ml of culturing medium were seeded in 24-well plates 24 h before transfection and RNA quantification targeting siRNA were formulated in LNPs and directly added to the medium for transfection. Cells were then collected for RNA quantification.
Sample collection and mRNA purification for in vitro studies were performed as follows. MV4-11 cells were lysed directly on the plate with RNA lysis buffer (Qiagen). Suspension cells were collected into tubes and spun down at 2,000 rpm for 1 min, then the cell pellets were lysed with RNA lysis buffer (Qiagen). […]
Total RNA from all collected samples was purified using Qiagen RNeasy Kit following the manufacturer's protocol. Relative quantification of target mRNA and 18S ribosomal RNA gene expression was carried out with cDNA Reverse Transcription Reagents from Applied Biosystems followed by Taqman Gene Expression Assays (Applied Biosystems) using the manufacturer's protocol. […]
Regarding `Cc1cccc(Cl)c1C(=O)N[C@@H](Cc1ccc(NC(=O)c2c(Cl)cccc2Cl)cc1)C(=O)O` [Example 27, (S)-2-(2-Chloro-6-methyl-benzoylamino)-3-[4-(2,6-dichloro-benzoylamino)-phenyl]-propionic acid], the “knockdown of KIF11 expression” value is reported as “no knockdown”.
